Data as given in ChEMBL document CHEMBL5579877, “Design and Evaluation of 3-Phenyloxetane Derivative Agonists of the Glucagon-Like Peptide-1 Receptor” (J Med Chem, 2024).

Key:
[1] = target: Cytochrome P450 2C9 (Homo sapiens, UniProt P11712); test: Inhibition of CYP2C9 in human liver microsomes using diclofenac as substrate preincubated for 5 mins followed by NADPH addition and measured after 10 mins by LC-MS/MS analysis; type: ADME, Microsome
[2] = target: T1, Cytochrome P450 3A4 (Homo sapiens, UniProt P08684); test: Inhibition of CYP3A4 in human liver microsomes using midazolam as substrate preincubated for 5 mins followed by NADPH addition and measured after 5 mins by LC-MS/MS analysis; type: ADME, Microsome
T1 sequence (P08684 whole entry): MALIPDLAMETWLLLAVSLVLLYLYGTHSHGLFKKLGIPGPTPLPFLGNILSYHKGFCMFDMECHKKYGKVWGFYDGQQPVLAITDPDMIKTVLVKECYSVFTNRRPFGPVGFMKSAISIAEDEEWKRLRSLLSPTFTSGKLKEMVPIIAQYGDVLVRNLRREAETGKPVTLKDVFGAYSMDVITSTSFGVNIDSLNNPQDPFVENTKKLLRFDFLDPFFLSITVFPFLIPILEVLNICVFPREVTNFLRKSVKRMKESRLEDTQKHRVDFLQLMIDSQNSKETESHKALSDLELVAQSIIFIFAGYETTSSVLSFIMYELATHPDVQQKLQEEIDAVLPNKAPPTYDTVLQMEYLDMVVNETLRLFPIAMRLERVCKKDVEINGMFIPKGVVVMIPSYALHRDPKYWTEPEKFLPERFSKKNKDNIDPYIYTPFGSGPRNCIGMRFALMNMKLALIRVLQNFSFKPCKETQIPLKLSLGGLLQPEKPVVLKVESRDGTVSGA

[3] = Oral bioavailability in ICR mouse at 5 mg/kg by LC-MS/MS analysis; type: ADME, organism-based; conditions: in vivo
[4] = Half-life in rat at 5 mg/kg, po by LC-MS/MS analysis; type: ADME, organism-based; conditions: in vivo
[5] = target: T2, Cytochrome P450 2B6 (Homo sapiens, UniProt P20813); test: Inhibition of CYP2B6 in human liver microsomes using bupropion as substrate preincubated for 5 mins followed by NADPH addition and measured after 10 mins by LC-MS/MS analysis; type: ADME, Microsome
T2 sequence (P20813 whole entry): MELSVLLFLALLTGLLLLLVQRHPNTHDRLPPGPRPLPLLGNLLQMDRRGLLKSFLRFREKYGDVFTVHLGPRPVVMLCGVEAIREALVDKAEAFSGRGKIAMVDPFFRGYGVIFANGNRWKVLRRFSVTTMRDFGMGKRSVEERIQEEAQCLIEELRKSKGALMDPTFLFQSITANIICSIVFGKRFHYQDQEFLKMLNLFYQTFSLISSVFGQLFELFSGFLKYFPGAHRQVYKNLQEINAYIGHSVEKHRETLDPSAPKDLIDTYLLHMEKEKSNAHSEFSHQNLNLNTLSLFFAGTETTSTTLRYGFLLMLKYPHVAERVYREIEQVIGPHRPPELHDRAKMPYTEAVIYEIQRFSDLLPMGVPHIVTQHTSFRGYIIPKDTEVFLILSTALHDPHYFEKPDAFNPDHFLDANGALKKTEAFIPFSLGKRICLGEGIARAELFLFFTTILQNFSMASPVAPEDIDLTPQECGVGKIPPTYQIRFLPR

[6] = Half-life in rat at 2 mg/kg, iv by LC-MS/MS analysis; type: ADME, organism-based; conditions: in vivo
[7] = Oral clearance in ICR mouse at 5 mg/kg, po by LC-MS/MS analysis; type: ADME, organism-based; conditions: in vivo
[8] = Cmax in ICR mouse at 5 mg/kg, po by LC-MS/MS analysis; type: ADME, organism-based; conditions: in vivo
[9] = Oral bioavailability in rat at 5 mg/kg by LC-MS/MS analysis; type: ADME, organism-based; conditions: in vivo
[10] = target: T3, Cytochrome P450 2C8 (Homo sapiens, UniProt P10632); test: Inhibition of CYP2C8 in human liver microsomes using paclitaxel as substrate preincubated for 5 mins followed by NADPH addition and measured after 20 mins by LC-MS/MS analysis; type: ADME, Microsome
T3 sequence (P10632 whole entry): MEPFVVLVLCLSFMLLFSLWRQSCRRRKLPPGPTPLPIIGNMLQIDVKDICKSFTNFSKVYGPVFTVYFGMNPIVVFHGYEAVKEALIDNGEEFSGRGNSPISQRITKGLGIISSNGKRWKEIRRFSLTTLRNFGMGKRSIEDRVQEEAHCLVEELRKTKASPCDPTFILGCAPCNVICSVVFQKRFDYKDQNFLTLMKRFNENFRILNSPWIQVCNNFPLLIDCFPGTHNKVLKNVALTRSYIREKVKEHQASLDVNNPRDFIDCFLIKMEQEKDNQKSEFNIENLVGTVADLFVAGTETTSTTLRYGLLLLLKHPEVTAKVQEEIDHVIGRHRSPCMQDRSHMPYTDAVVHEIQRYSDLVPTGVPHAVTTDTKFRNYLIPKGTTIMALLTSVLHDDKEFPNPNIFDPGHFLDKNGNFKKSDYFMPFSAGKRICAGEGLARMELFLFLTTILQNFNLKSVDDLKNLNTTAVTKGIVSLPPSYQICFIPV

[11] = Half-life in ICR mouse at 2 mg/kg, iv by LC-MS/MS analysis; type: ADME, organism-based; conditions: in vivo
[12] = target: T1, Cytochrome P450 3A4; test: Inhibition of CYP3A4 in human liver microsomes using testosterone as substrate preincubated for 5 mins followed by NADPH addition and measured after 5 mins by LC-MS/MS analysis; type: ADME, Microsome
[13] = Permeability across basolateral to apical side in human Caco-2 cells at 10 uM incubated for 120 mins by LC-MS/MS analysis; type: ADME, cell-based; conditions: read-out: permeability
[14] = Cmax in cynomolgus monkey at 2 mg/kg, iv; type: ADME, organism-based, Macaca fascicularis; conditions: in vivo
[15] = Cmax in rat at 5 mg/kg, po by LC-MS/MS analysis; type: ADME, organism-based; conditions: in vivo
[16] = AUC in rat at 2 mg/kg, iv by LC-MS/MS analysis; type: ADME, organism-based; conditions: in vivo
[17] = Apparent volume of distribution in rat at 2 mg/kg, iv by LC-MS/MS analysis; type: ADME, organism-based; conditions: in vivo, read-out: Vz
[18] = Permeability across apical to basolateral in human Caco-2 cells at 10 uM incubated for 120 mins by LC-MS/MS analysis; type: ADME, cell-based; conditions: read-out: permeability
[19] = Tmax in cynomolgus monkey at 2 mg/kg, iv; type: ADME, organism-based, Macaca fascicularis; conditions: in vivo
[20] = target: T4, Cytochrome P450 1A2 (Homo sapiens, UniProt P05177); test: Inhibition of CYP1A2 in human liver microsomes using phenacetin as substrate preincubated for 5 mins followed by NADPH addition and measured after 10 mins by LC-MS/MS analysis; type: ADME, Microsome
T4 sequence (P05177 whole entry): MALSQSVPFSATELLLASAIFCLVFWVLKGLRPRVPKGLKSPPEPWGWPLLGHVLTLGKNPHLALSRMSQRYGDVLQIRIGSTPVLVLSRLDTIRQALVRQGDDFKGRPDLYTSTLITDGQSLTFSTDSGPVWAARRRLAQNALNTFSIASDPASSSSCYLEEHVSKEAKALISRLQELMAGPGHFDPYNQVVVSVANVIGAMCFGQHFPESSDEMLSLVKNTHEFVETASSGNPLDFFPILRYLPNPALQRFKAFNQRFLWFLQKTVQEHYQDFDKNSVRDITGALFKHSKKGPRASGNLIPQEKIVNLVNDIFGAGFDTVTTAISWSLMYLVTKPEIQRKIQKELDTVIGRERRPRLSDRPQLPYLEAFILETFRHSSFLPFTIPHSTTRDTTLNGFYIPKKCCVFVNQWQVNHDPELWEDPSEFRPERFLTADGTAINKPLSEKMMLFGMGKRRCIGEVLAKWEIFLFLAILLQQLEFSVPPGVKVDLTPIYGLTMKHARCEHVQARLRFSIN

[21] = Oral clearance in rat at 5 mg/kg, po by LC-MS/MS analysis; type: ADME, organism-based; conditions: in vivo
[22] = Oral bioavailability in cynomolgus monkey at 20 mg/kg; type: ADME, organism-based, Macaca fascicularis; conditions: in vivo
[23] = AUC in rat at 5 mg/kg, po by LC-MS/MS analysis; type: ADME, organism-based; conditions: in vivo
[24] = target: Cytochrome P450 2C19 (Homo sapiens, UniProt P33261); test: Inhibition of CYP2C19 in human liver microsomes using S-mephenytoin as substrate preincubated for 5 mins followed by NADPH addition and measured after 45 mins by LC-MS/MS analysis; type: ADME, Microsome
Chain of Cytochrome P450 2C19 (P33261 whole entry): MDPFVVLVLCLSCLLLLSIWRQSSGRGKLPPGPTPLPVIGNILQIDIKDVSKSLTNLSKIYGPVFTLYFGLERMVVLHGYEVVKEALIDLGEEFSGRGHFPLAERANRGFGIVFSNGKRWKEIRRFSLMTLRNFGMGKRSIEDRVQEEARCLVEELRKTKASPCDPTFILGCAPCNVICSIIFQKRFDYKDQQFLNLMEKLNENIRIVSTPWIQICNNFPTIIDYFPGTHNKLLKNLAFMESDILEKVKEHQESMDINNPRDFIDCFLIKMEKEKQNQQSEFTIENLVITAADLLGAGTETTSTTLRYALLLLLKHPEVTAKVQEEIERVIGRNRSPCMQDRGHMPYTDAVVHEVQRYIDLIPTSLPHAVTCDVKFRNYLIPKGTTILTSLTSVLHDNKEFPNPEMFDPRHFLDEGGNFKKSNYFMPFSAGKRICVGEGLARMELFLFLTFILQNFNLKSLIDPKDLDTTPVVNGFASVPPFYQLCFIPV

[25] = AUC in ICR mouse at 2 mg/kg, iv by LC-MS/MS analysis; type: ADME, organism-based; conditions: in vivo

Chain of Cytochrome P450 2C9 (P11712 whole entry): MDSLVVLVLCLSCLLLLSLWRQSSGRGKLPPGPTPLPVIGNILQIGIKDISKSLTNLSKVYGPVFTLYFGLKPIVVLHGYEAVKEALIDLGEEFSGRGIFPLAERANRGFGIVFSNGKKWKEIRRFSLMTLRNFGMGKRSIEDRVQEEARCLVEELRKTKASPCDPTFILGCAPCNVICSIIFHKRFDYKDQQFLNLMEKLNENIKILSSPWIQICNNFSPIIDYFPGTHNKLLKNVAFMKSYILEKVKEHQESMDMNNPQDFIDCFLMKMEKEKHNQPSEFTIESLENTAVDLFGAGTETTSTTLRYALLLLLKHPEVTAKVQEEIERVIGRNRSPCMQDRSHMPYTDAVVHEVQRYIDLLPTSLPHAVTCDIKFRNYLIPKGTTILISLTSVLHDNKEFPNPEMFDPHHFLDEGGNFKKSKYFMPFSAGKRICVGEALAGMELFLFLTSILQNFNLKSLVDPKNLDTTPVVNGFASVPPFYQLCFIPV

SMILES: O=C(O)c1ccc2nc(CN3CCC(c4cccc(OCc5ccc(C6COC6)cc5F)n4)CC3)n(C[C@@H]3CCO3)c2c1
- IC50 [1]: > 10 µM
- IC50 [2]: > 10 µM
- bioavailability [3]: 53.1%
- half-life [4]: 50.4 min
- IC50 [5]: > 10 µM
- half-life [6]: 12.6 min
- CL/F [7]: 41.8 mL/min/kg
- Cmax [8]: 2090 ng/mL
- bioavailability [9]: 12.8%
- IC50 [10]: 220 nM
- half-life [11]: 422 min
- IC50 [12]: > 10 µM
- Papp B→A at 2 h, 10 µM [13]: 16.5 ×10⁻⁶ cm/s
- Cmax [14]: 207 nM
- Cmax [15]: 190 ng/mL
- AUC [16]: 530 ng·h/mL
- Vd [17]: 1.37 L/kg
- Papp A→B at 2 h, 10 µM [18]: 3.14 ×10⁻⁶ cm/s
- Tmax [19]: 1.39 h
- IC50 [20]: > 10 µM
- CL/F [21]: 52.8 mL/min/kg
- bioavailability [22]: 32.8%
- AUC [23]: 180 ng·h/mL
- IC50 [24]: > 10 µM
- AUC [25]: 1670 ng·h/mL

SMILES: N#Cc1ccc(COc2cccc(C3CCN(Cc4nc5ccc(C(=O)O)cc5n4C[C@@H]4CCO4)CC3)n2)c(F)c1 [DANUGLIPRON]
- IC50 [1]: > 10 µM
- IC50 [2]: > 10 µM
- bioavailability [3]: 54.2%
- half-life [4]: 79.8 min
- IC50 [5]: > 10 µM
- half-life [6]: 19.2 min
- CL/F [7]: 36.5 mL/min/kg
- Cmax [8]: 2840 ng/mL
- bioavailability [9]: 10.2%
- IC50 [10]: 1250 nM
- half-life [11]: 148 min
- IC50 [12]: > 10 µM
- Papp B→A at 2 h, 10 µM [13]: 21.7 ×10⁻⁶ cm/s
- Cmax [14]: 670 nM
- Cmax [15]: 110 ng/mL
- AUC [16]: 520 ng·h/mL
- Vd [17]: 1.98 L/kg
- Papp A→B at 2 h, 10 µM [18]: 3.93 ×10⁻⁶ cm/s
- Tmax [19]: 1.21 h
- IC50 [20]: > 10 µM
- CL/F [21]: 554 mL/min/kg
- bioavailability [22]: 3.41%
- AUC [23]: 170 ng·h/mL
- IC50 [24]: > 10 µM
- AUC [25]: 1670 ng·h/mL
